Assay results as given in patent US9062078B2, “Substituted 7-azabicyles and their use as orexin receptor modulators” (priority 2013, dated 2015).
Where two headings read alike, the source gives them in different places.

Legend:
human orexin 2 receptor = human orexin 2 receptor (Homo sapiens (Human), UniProt O43614); assay: Human orexin 2 receptor radioligand binding (competitive, [3H]-EMPA, HEK293 cell preparations)
rat orexin 1 receptor = rat orexin 1 receptor (Rattus norvegicus, UniProt P56718); assay: Rat orexin 1 receptor radioligand binding (competitive, [3H]-SB674042, HEK293 cell preparations)
[1] = human orexin 2 receptor, [3H]-EMPA competition binding, read-out: hOX2 Ki (nm)
[2] = rat orexin 1 receptor, [3H]-SB674042 competition binding, read-out: rOX1 Ki (nm)

Chain of human orexin 2 receptor (O43614 whole entry): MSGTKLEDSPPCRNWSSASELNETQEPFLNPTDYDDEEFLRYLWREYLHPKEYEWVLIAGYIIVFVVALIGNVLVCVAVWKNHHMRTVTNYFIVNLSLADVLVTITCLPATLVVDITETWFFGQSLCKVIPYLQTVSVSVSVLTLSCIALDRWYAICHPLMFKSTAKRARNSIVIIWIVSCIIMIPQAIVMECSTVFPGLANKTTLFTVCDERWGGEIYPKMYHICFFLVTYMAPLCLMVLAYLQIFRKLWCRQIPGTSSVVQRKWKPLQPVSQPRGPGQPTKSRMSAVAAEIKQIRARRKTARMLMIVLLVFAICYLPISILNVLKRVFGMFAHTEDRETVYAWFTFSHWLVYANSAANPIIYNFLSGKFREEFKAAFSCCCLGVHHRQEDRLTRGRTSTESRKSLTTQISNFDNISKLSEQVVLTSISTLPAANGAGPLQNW

SMILES	Ki (human orexin 2 receptor; [1]) [nM]	Ki (rat orexin 1 receptor; [2]) [nM]	Ki (rat orexin 1 receptor; rOX1 Ki (nm)) [nM]	Ki (human orexin 2 receptor; hOX2 Ki (nm)) [nM]
Cc1ccc(-c2ncccn2)c(C(=O)N2C3CCC2C(Nc2ncc(C(F)(F)F)cn2)C3)n1 (racemic) [Example 225, (±)-(6-methyl-3-(pyrimidin-2-yl)pyridin-2-yl)(2-(5-(trifluoromethyl)pyrimidin-2-yl)amino)-7-azabicyclo[2.2.1]heptan-7-yl)methanone]	3300	530	–	–
O=C(c1cccc(F)c1-c1ncccn1)N1[C@@H]2CC[C@H]1[C@H](Nc1nccn3c(Br)cnc13)C2 [Example 270, ((1S,2R,4R)-2-((3-bromoimidazo[1,2-a]pyrazin-8-yl)amino)-7-azabicyclo[2.2.1]heptan-7-yl)(3-fluoro-2-(pyrimidin-2-yl)phenyl)methanone]	145	325	–	–
COc1c(F)cccc1C(=O)N1C2CCC1C(Nc1ncc(C(F)(F)F)cn1)C2 (racemic) [Example 222, (±)-(3-fluoro-2-methoxyphenyl)(2-(5-(trifluoromethyl)pyrimidin-2-yl)amino)-7-azabicyclo[2.2.1]heptan-7-yl)methanone]	> 10000	–	4800	–
CCOc1nccc(C)c1C(=O)N1C2CCC1C(COc1ccccn1)C2 (racemic) [Example 155, (±)-(2-ethoxy-4-methylpyridin-3-yl)(2-((pyridin-2-yloxy)methyl)-7-azabicyclo[2.2.1]heptan-7-yl)methanone]	3600	–	1570	–
O=C(c1nc2ccccc2cc1-n1nccn1)N1C2CCC1C(COc1ccccn1)C2 (racemic) [Example 74, (±)-(3-(2H-1,2,3-triazol-2-yl)quinolin-2-yl)(2-((pyridin-2-yloxy)methyl)-7-azabicyclo[2.2.1]heptan-7-yl)methanone]	1700	–	359	–
CCOc1ccnc(Cl)c1C(=O)N1C2CCC1C(COc1ccccn1)C2 (racemic) [Example 162, (±)-(2-chloro-4-ethoxypyridin-3-yl)(2-((pyridin-2-yloxy)methyl)-7-azabicyclo[2.2.1]heptan-7-yl)methanone]	> 10000	8500	–	–
Cc1ccc(-c2ncccc2C)c(C(=O)N2C3CCC2C(COc2ccc(F)cn2)C3)n1 (racemic) [Example 65, (±)-(3,6′-dimethyl-[2,3′-bipyridin]-2′-yl)(2-(((5-fluoropyridin-2-yl)oxy)methyl)-7-azabicyclo[2.2.1]heptan-7-yl)methanone]	6200	–	1440	–
Cc1ccn2c(C)cnc2c1C(=O)N1C2CCC1C(COc1ccccn1)C2 (racemic) [Example 79, (±)-((3,7-dimethylimidazo[1,2-a]pyridin-8-yl)(2-((pyridin-2-yloxy)methyl)-7-azabicyclo[2.2.1]heptan-7-yl)methanone]	8500	2400	–	–
Cc1ccc(-n2nccn2)c(C(=O)N2C3CCC2C(COc2ccnn2C)C3)n1 (racemic) [Example 56, (±)-(2-(((1-methyl-1H-pyrazol-5-yl)oxy)methyl)-7-azabicyclo[2.2.1]heptan-7-yl)(6-methyl-3-(2H-1,2,3-triazol-2-yl)pyridin-2-yl)methanone]	–	> 10000	–	> 10000
Cc1cccc(C(=O)N2[C@@H]3CC[C@H]2[C@H](Nc2cnc(C(F)(F)F)cn2)C3)c1-c1ncco1 [Example 266, (3-methyl-2-(oxazol-2-yl)phenyl)((1S,2R,4R)-2-((5-(trifluoromethyl)pyrazin-2-yl)amino)-7-azabicyclo[2.2.1]heptan-7-yl)methanone]	121	5	–	–
COc1ccc(C(=O)N2C3CCC2C(Nc2ccc(C(F)(F)F)cn2)C3)c(-n2nccn2)c1 (racemic) [Example 191, (±)-(4-methoxy-2-(2H-1,2,3-triazol-2-yl)phenyl)(2-(5-(trifluoromethyl)pyridin-2-yl)amino)-7-azabicyclo[2.2.1]heptan-7-yl)methanone]	8800	–	257	–
Cc1ccc(-c2ncccc2C)c(C(=O)N2C3CCC2C(COc2ncc(F)cn2)C3)n1 (racemic) [Example 98, (±)-(3,6′-dimethyl-[2,3′-bipyridin]-2′-yl)(2-(((5-fluoropyrimidin-2-yl)oxy)methyl)-7-azabicyclo[2.2.1]heptan-7-yl)methanone]	> 10000	> 10000	–	–
Cc1cc(C)nc(NC2CC3CCC2N3C(=O)c2nc(C)ccc2-n2nccn2)n1 (racemic) [Example 201, (±)-(2-((4,6-dimethylpyrimidin-2-yl)amino)-7-azabicyclo[2.2.1]heptan-7-yl)(6-methyl-3-(2H-1,2,3-triazol-2-yl)pyridin-2-yl)methanone]	1100	3700	–	–
Cc1cccc(-c2ncccn2)c1C(=O)N1C2CCC1C(COc1ccc(F)cn1)C2 (racemic) [Example 123, (±)-(2-(((5-fluoropyridin-2-yl)oxy)methyl)-7-azabicyclo[2.2.1]heptan-7-yl)(2-methyl-6-(pyrimidin-2-yl)phenyl)methanone]	286	–	400	–
COc1c(F)cccc1C(=O)N1C2CCC1C(Nc1nc(C)cc(C)n1)C2 (stereo not drawn) [Example 261, (2-((4,6-dimethylpyrimidin-2-yl)amino)-7-azabicyclo[2.2.1]heptan-7-yl)(3-fluoro-2-methoxyphenyl)methanone]	5000	> 10000	–	–
Cc1nc2sccn2c1C(=O)N1C2CCC1C(COc1ccccn1)C2 (racemic) [Example 156, (±)-(6-methylimidazo[2,1-b]thiazol-5-yl)(2-((pyridin-2-yloxy)methyl)-7-azabicyclo[2.2.1]heptan-7-yl)methanone]	> 10000	> 10000	–	–
O=C(c1cccc(F)c1-c1ncccn1)N1C2CCC1C(Oc1ncc(C(F)(F)F)cn1)C2 (single isomer, unassigned) [Example 285, (±)-(3-fluoro-2-(pyrimidin-2-yl)phenyl)(2-(5-(trifluoromethyl)pyrimidin-2-yl)oxy)-7-azabicyclo[2.2.1]heptan-7-yl)methanone]	> 10000	720	–	–
Cc1ccc(-n2cccn2)c(C(=O)N2C3CCC2C(COc2ncc(F)cn2)C3)n1 (racemic) [Example 104, (±)-(2-(((5-fluoropyrimidin-2-yl)oxy)methyl)-7-azabicyclo[2.2.1]heptan-7-yl)(6-methyl-3-(1H-pyrazol-1-yl)pyridin-2-yl)methanone]	–	–	1100	4600
O=C(c1cccc(F)c1-c1ncccn1)N1[C@H]2CC[C@@H]1[C@@H](Nc1cnc(C(F)(F)F)cn1)C2 [Example 297, (3-fluoro-2-(pyrimidin-2-yl)phenyl)((1R,2S,4S)-2-((5-(trifluoromethyl)pyrazin-2-yl)amino)-7-azabicyclo[2.2.1]heptan-7-yl)methanone]	> 10000	> 10000	–	–
Cc1ccc2ncc(C)n2c1C(=O)N1C2CCC1C(COc1ccccn1)C2 (racemic) [Example 76, (±)-(3,6-dimethylimidazo[1,2-a]pyridin-5-yl)(2-((pyridin-2-yloxy)methyl)-7-azabicyclo[2.2.1]heptan-7-yl)methanone]	> 10000	> 10000	–	–
O=C(c1cccc(F)c1-c1ncccn1)N1C2CCC1C(COc1ccccn1)C2 (racemic) [Example 52, (±)-(3-fluoro-2-(pyrimidin-2-yl)phenyl)(2-((pyridin-2-yloxy)methyl)-7-azabicyclo[2.2.1]heptan-7-yl)methanone]	–	350	–	2300
